Assay results: the CheMixHub viscosity set
± gives the uncertainty stated by the source.

Test: xn = mol fraction of the nth substance listed

COCC(C)O (stereo not drawn) + CS(C)=O
viscosity [mPa·s], 101 kPa
Settings	298.15 K	303.15 K	308.15 K	313.15 K	318.15 K
x1 = 0.0436	1.79 ± 0.17	1.54 ± 0.15	1.47 ± 0.14	1.39 ± 0.13	1.31 ± 0.13
x1 = 0.0879	1.79 ± 0.17	1.54 ± 0.15	1.47 ± 0.14	1.38 ± 0.13	1.3 ± 0.12
x1 = 0.1327	1.78 ± 0.17	1.53 ± 0.14	1.46 ± 0.14	1.38 ± 0.13	1.3 ± 0.12
x1 = 0.1781	1.78 ± 0.17	1.53 ± 0.14	1.46 ± 0.14	1.37 ± 0.13	1.29 ± 0.12
x1 = 0.2242	1.78 ± 0.17	1.53 ± 0.14	1.46 ± 0.14	1.37 ± 0.13	1.29 ± 0.12
x1 = 0.2709	1.77 ± 0.16	1.53 ± 0.14	1.45 ± 0.14	1.36 ± 0.13	1.29 ± 0.12
x1 = 0.3183	1.77 ± 0.16	1.52 ± 0.14	1.45 ± 0.14	1.36 ± 0.13	1.28 ± 0.12
x1 = 0.3663	1.77 ± 0.16	1.52 ± 0.14	1.45 ± 0.14	1.35 ± 0.13	1.28 ± 0.12
x1 = 0.415	1.76 ± 0.16	1.52 ± 0.14	1.44 ± 0.14	1.35 ± 0.13	1.28 ± 0.12
x1 = 0.4644	1.75 ± 0.16	1.51 ± 0.14	1.43 ± 0.14	1.34 ± 0.13	1.27 ± 0.12
x1 = 0.5145	1.75 ± 0.16	1.51 ± 0.14	1.43 ± 0.14	1.34 ± 0.13	1.26 ± 0.12
x1 = 0.5653	1.75 ± 0.16	1.5 ± 0.14	1.42 ± 0.14	1.33 ± 0.13	1.25 ± 0.12
x1 = 0.6169	1.73 ± 0.16	1.49 ± 0.14	1.41 ± 0.13	1.31 ± 0.13	1.24 ± 0.12
x1 = 0.6692	1.72 ± 0.16	1.47 ± 0.14	1.39 ± 0.13	1.29 ± 0.12	1.22 ± 0.12
x1 = 0.7224	1.7 ± 0.16	1.45 ± 0.14	1.37 ± 0.13	1.27 ± 0.12	1.2 ± 0.12
x1 = 0.7762	1.67 ± 0.16	1.42 ± 0.14	1.34 ± 0.13	1.24 ± 0.12	1.17 ± 0.11
x1 = 0.8864	1.62 ± 0.15	1.36 ± 0.13	1.28 ± 0.12	1.18 ± 0.11	1.11 ± 0.11

O=[N+]([O-])c1ccccc1 + CS(C)=O
viscosity [mPa·s], 101 kPa
Settings	x2 = 0.1	x2 = 0.2	x2 = 0.3	x2 = 0.4	x2 = 0.5	x2 = 0.6	x2 = 0.7	x2 = 0.8	x2 = 0.9
298.15 K	1.851 ± 0.018	1.877 ± 0.018	1.903 ± 0.018	1.927 ± 0.018	1.946 ± 0.018	1.962 ± 0.019	1.975 ± 0.019	1.985 ± 0.019	1.993 ± 0.019
308.15 K	1.569 ± 0.015	1.586 ± 0.015	1.605 ± 0.016	1.623 ± 0.016	1.639 ± 0.016	1.653 ± 0.016	1.662 ± 0.016	1.665 ± 0.016	1.664 ± 0.016
318.15 K	1.333 ± 0.013	1.349 ± 0.013	1.353 ± 0.013	1.377 ± 0.014	1.388 ± 0.014	1.396 ± 0.014	1.402 ± 0.014	1.403 ± 0.014	1.4 ± 0.014

ClC(Cl)=C(Cl)Cl + Cc1ccc(C)cc1
303.15 K, 101 kPa
Settings	viscosity [mPa·s]
x1 = 0.106	0.586 ± 0.006
x1 = 0.1121	0.588 ± 0.006
x1 = 0.212	0.607 ± 0.006
x1 = 0.6339	0.704 ± 0.007
x1 = 0.6982	0.719 ± 0.007
x1 = 0.7773	0.738 ± 0.007
x1 = 0.8517	0.757 ± 0.007

CN(C)C=O + Cc1ccccc1
Settings	viscosity [mPa·s]
293.15 K, 101 kPa, x1 = 0.0501	0.592 ± 0.032
293.15 K, 101 kPa, x1 = 0.1001	0.607 ± 0.032
293.15 K, 101 kPa, x1 = 0.22	0.641 ± 0.034
293.15 K, 101 kPa, x1 = 0.3122	0.668 ± 0.035
293.15 K, 101 kPa, x1 = 0.4002	0.693 ± 0.036
293.15 K, 101 kPa, x1 = 0.5002	0.721 ± 0.037
293.15 K, 101 kPa, x1 = 0.6111	0.751 ± 0.039
293.15 K, 101 kPa, x1 = 0.7003	0.775 ± 0.04
293.15 K, 101 kPa, x1 = 0.8122	0.805 ± 0.041
293.15 K, 101 kPa, x1 = 0.9002	0.828 ± 0.042
298.15 K, 101.3 kPa, x1 = 0.1224	0.584 ± 0.009
298.15 K, 101.3 kPa, x1 = 0.2414	0.612 ± 0.01
298.15 K, 101.3 kPa, x1 = 0.3485	0.639 ± 0.01
298.15 K, 101.3 kPa, x1 = 0.4031	0.654 ± 0.01
298.15 K, 101.3 kPa, x1 = 0.5545	0.699 ± 0.01
298.15 K, 101.3 kPa, x1 = 0.657	0.723 ± 0.011
298.15 K, 101.3 kPa, x1 = 0.7413	0.742 ± 0.011
298.15 K, 101.3 kPa, x1 = 0.8336	0.764 ± 0.011
298.15 K, 101.3 kPa, x1 = 0.9129	0.781 ± 0.011
303.15 K, 101.3 kPa, x1 = 0.1224	0.55 ± 0.009
303.15 K, 101.3 kPa, x1 = 0.2414	0.576 ± 0.009
303.15 K, 101.3 kPa, x1 = 0.3485	0.601 ± 0.01
303.15 K, 101.3 kPa, x1 = 0.4031	0.615 ± 0.01
303.15 K, 101.3 kPa, x1 = 0.5545	0.657 ± 0.01
303.15 K, 101.3 kPa, x1 = 0.657	0.68 ± 0.01
303.15 K, 101.3 kPa, x1 = 0.7413	0.698 ± 0.01
303.15 K, 101.3 kPa, x1 = 0.8336	0.718 ± 0.011
303.15 K, 101.3 kPa, x1 = 0.9129	0.735 ± 0.011
303.15 K, 101.33 kPa, x1 = 0.1037	0.542 ± 0.004
303.15 K, 101.33 kPa, x1 = 0.1731	0.556 ± 0.004
303.15 K, 101.33 kPa, x1 = 0.2947	0.581 ± 0.005
303.15 K, 101.33 kPa, x1 = 0.3985	0.602 ± 0.005
303.15 K, 101.33 kPa, x1 = 0.4729	0.618 ± 0.005
303.15 K, 101.33 kPa, x1 = 0.6004	0.645 ± 0.005
303.15 K, 101.33 kPa, x1 = 0.7147	0.67 ± 0.005
303.15 K, 101.33 kPa, x1 = 0.7974	0.688 ± 0.005
303.15 K, 101.33 kPa, x1 = 0.8981	0.712 ± 0.005
308.15 K, 101.3 kPa, x1 = 0.1224	0.518 ± 0.009
308.15 K, 101.3 kPa, x1 = 0.2414	0.541 ± 0.009
308.15 K, 101.3 kPa, x1 = 0.3485	0.565 ± 0.009
308.15 K, 101.3 kPa, x1 = 0.4031	0.578 ± 0.009
308.15 K, 101.3 kPa, x1 = 0.5545	0.617 ± 0.01
308.15 K, 101.3 kPa, x1 = 0.657	0.638 ± 0.01
308.15 K, 101.3 kPa, x1 = 0.7413	0.655 ± 0.01
308.15 K, 101.3 kPa, x1 = 0.8336	0.674 ± 0.01
308.15 K, 101.3 kPa, x1 = 0.9129	0.69 ± 0.01
313.15 K, 101.3 kPa, x1 = 0.1224	0.49 ± 0.009
313.15 K, 101.3 kPa, x1 = 0.2414	0.512 ± 0.009
313.15 K, 101.3 kPa, x1 = 0.3485	0.534 ± 0.009
313.15 K, 101.3 kPa, x1 = 0.4031	0.547 ± 0.009
313.15 K, 101.3 kPa, x1 = 0.5545	0.584 ± 0.009
313.15 K, 101.3 kPa, x1 = 0.657	0.604 ± 0.01
313.15 K, 101.3 kPa, x1 = 0.7413	0.619 ± 0.01
313.15 K, 101.3 kPa, x1 = 0.8336	0.638 ± 0.01
313.15 K, 101.3 kPa, x1 = 0.9129	0.653 ± 0.01
313.15 K, 101.33 kPa, x1 = 0.1037	0.491 ± 0.004
313.15 K, 101.33 kPa, x1 = 0.1731	0.505 ± 0.004
313.15 K, 101.33 kPa, x1 = 0.2947	0.522 ± 0.004
313.15 K, 101.33 kPa, x1 = 0.3985	0.543 ± 0.004
313.15 K, 101.33 kPa, x1 = 0.4729	0.56 ± 0.004
313.15 K, 101.33 kPa, x1 = 0.6004	0.583 ± 0.005
313.15 K, 101.33 kPa, x1 = 0.7147	0.604 ± 0.005
313.15 K, 101.33 kPa, x1 = 0.7974	0.622 ± 0.005
313.15 K, 101.33 kPa, x1 = 0.8981	0.643 ± 0.005
